Measurements: patent US20060069132A1, “Azolecarboxamide herbicides” (priority 2004, published 2006)

What was measured:
[1] = system: barnyardgrass; experiment: Test B pre-/postemergence herbicide test; format: in vivo, Echinochloa crus-galli; conditions: for Barnyardgrass plant response rating (0 to 100 scale): 0 = no effect, 100 = complete control; for Barnyardgrass plant response rating (0 to 100 scale) / Plant response rating, Barnyardgrass: preemergence; for Plant response rating, Barnyardgrass: visual rating 0-100, 0 no effect, 100 complete control; for Barnyardgrass plant response rating: postemergence, visual rating, scale 0 (no effect) to 100 (complete control)
Outline: (§1)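 Response was scored visually 13 to 15 days after treatment against untreated greenhouse controls, 0 meaning no effect and 100 complete control. Formulations (solvent mixture plus surfactant) went onto soil after planting, onto foliage of 1- to 4-leaf plants, and onto 2-leaf plants in a flooded paddy set including rice and barnyardgrass.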

[2] = system: Surinam grass; experiment: Test B pre-/postemergence herbicide test; format: in vivo, Urochloa decumbens; conditions: for Surinam Grass plant response rating (0 to 100 scale): 0 = no effect, 100 = complete control; for Surinam Grass plant response rating (0 to 100 scale) / Plant response rating, Surinam Grass: preemergence; for Plant response rating, Surinam Grass: visual rating 0-100, 0 no effect, 100 complete control; for Surinam Grass plant response rating: postemergence, visual rating, scale 0 (no effect) to 100 (complete control)
Outline: (§2)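 Formulation: non-phytotoxic solvent mix with surfactant. Timing: preemergence on seed and postemergence on 2–18 cm plants, applied concurrently. Readout after 13–15 d greenhouse: visual 0–100 control rating against controls.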

[3] = system: cocklebur; experiment: Test B pre-/postemergence herbicide test; format: in vivo, Xanthium strumarium; conditions: for Cocklebur plant response rating (0 to 100 scale): 0 = no effect, 100 = complete control; for Cocklebur plant response rating (0 to 100 scale) / Plant response rating, Cocklebur: preemergence; for Plant response rating, Cocklebur: visual rating 0-100, 0 no effect, 100 complete control; for Cocklebur plant response rating: postemergence, visual rating, scale 0 (no effect) to 100 (complete control)
Outline: as §1

[4] = system: corn; experiment: Test B pre-/postemergence herbicide test; format: in vivo, Zea mays; conditions: for Corn plant response rating (0 to 100 scale): 0 = no effect, 100 = complete control; for Corn plant response rating (0 to 100 scale) / Plant response rating, Corn: preemergence; for Plant response rating, Corn: visual rating 0-100, 0 no effect, 100 complete control; for Corn plant response rating: postemergence, visual rating, scale 0 (no effect) to 100 (complete control)
Outline: as §2

[5] = system: large crabgrass; experiment: Test B pre-/postemergence herbicide test; format: in vivo, Digitaria sanguinalis; conditions: for Crabgrass, Large plant response rating (0 to 100 scale): 0 = no effect, 100 = complete control; for Crabgrass, Large plant response rating (0 to 100 scale) / Plant response rating, Crabgrass, Large: preemergence; for Plant response rating, Crabgrass, Large: visual rating 0-100, 0 no effect, 100 complete control; for Crabgrass, Large plant response rating: postemergence, visual rating, scale 0 (no effect) to 100 (complete control)
Outline: as §2

[6] = system: giant foxtail; experiment: Test B pre-/postemergence herbicide test; format: in vivo, Setaria faberi; conditions: for Foxtail, Giant plant response rating (0 to 100 scale): 0 = no effect, 100 = complete control; for Foxtail, Giant plant response rating (0 to 100 scale) / Plant response rating, Foxtail, Giant: preemergence; for Plant response rating, Foxtail, Giant: visual rating 0-100, 0 no effect, 100 complete control; for Foxtail, Giant plant response rating: postemergence, visual rating, scale 0 (no effect) to 100 (complete control)
Outline: as §2

[7] = system: lambsquarters; experiment: Test B pre-/postemergence herbicide test; format: in vivo, Chenopodium album; conditions: for Lambsquarters plant response rating (0 to 100 scale): 0 = no effect, 100 = complete control; for Lambsquarters plant response rating (0 to 100 scale) / Plant response rating, Lambsquarters: preemergence; for Plant response rating, Lambsquarters: visual rating 0-100, 0 no effect, 100 complete control; for Lambsquarters plant response rating: postemergence, visual rating, scale 0 (no effect) to 100 (complete control)
Outline: as §2

[8] = system: morningglory; experiment: Test B pre-/postemergence herbicide test; format: in vivo, Ipomoea coccinea; conditions: for Morningglory plant response rating (0 to 100 scale): 0 = no effect, 100 = complete control; for Morningglory plant response rating (0 to 100 scale) / Plant response rating, Morningglory: preemergence; for Plant response rating, Morningglory: visual rating 0-100, 0 no effect, 100 complete control; for Morningglory plant response rating: postemergence, visual rating, scale 0 (no effect) to 100 (complete control)
Outline: as §1

[9] = system: pigweed; experiment: Test B pre-/postemergence herbicide test; format: in vivo, Amaranthus retroflexus; conditions: for Pigweed plant response rating (0 to 100 scale): 0 = no effect, 100 = complete control; for Pigweed plant response rating (0 to 100 scale) / Plant response rating, Pigweed: preemergence; for Plant response rating, Pigweed: visual rating 0-100, 0 no effect, 100 complete control; for Pigweed plant response rating: postemergence, visual rating, scale 0 (no effect) to 100 (complete control)
Outline: as §2

[10] = system: velvetleaf; experiment: Test B pre-/postemergence herbicide test; format: in vivo, Abutilon theophrasti; conditions: for Velvetleaf plant response rating (0 to 100 scale): 0 = no effect, 100 = complete control; for Velvetleaf plant response rating (0 to 100 scale) / Plant response rating, Velvetleaf: preemergence; for Plant response rating, Velvetleaf: visual rating 0-100, 0 no effect, 100 complete control; for Velvetleaf plant response rating: postemergence, visual rating, scale 0 (no effect) to 100 (complete control)
Outline: as §2

[11] = system: blackgrass; experiment: Test B postemergence herbicide test; format: in vivo, Alopecurus myosuroides; conditions: postemergence, visual rating, scale 0 (no effect) to 100 (complete control)
Outline: (§3)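 Visual control ratings, 0–100 versus untreated controls, taken after 13 to 15 days in the greenhouse. Blackgrass received a postemergence spray at the 1- to 4-leaf stage (2–18 cm); ducksalad, umbrella sedge and barnyardgrass were flooded-paddy treated at 2 leaves.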

[12] = system: wheat; experiment: Test B postemergence herbicide test; format: in vivo, Triticum aestivum; parameters: key to Wheat plant response rating: 0 = no effect, 100 = complete control; conditions: postemergence, visual rating, scale 0 (no effect) to 100 (complete control)
Outline: (§4)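 Plants grow to 1- to 4-leaf stage (2–18 cm) for postemergence spraying, or to 2-leaf stage for the paddy test. Formulated compound is applied. Greenhouse holding lasts 13–15 days. Response is scored visually relative to controls, 0 no effect to 100 complete control; a dash means no result.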

[13] = system: wild oat; experiment: Test B postemergence herbicide test; format: in vivo, Avena fatua; conditions: postemergence, visual rating, scale 0 (no effect) to 100 (complete control)
Outline: as §4

[14] = system: small flower umbrella sedge; experiment: Test B flooded paddy test; format: in vivo, Cyperus difformis; conditions: 1000 g ai/ha, visual rating, scale 0 to 100 (0 no effect, 100 complete control), 13 to 15 days
Outline: as §3

CCNC(=O)c1ccc(F)c(NC(=O)c2cn(C(C)(C)C)nc2CC)c1 [Compound 193]
Barnyardgrass plant response rating (0 to 100 scale) ([1]; 125 g ai/ha): 90
Plant response rating, Barnyardgrass ([1]; 500 g ai/ha): 100
Barnyardgrass plant response rating ([1]; 125 g ai/ha): 0
Barnyardgrass plant response rating ([1]; 500 g ai/ha): 10
Surinam Grass plant response rating (0 to 100 scale) ([2]; 125 g ai/ha): 80
Plant response rating, Surinam Grass ([2]; 500 g ai/ha): 100
Surinam Grass plant response rating ([2]; 125 g ai/ha): 10
Surinam Grass plant response rating ([2]; 500 g ai/ha): 10
Cocklebur plant response rating (0 to 100 scale) ([3]; 125 g ai/ha): 10
Plant response rating, Cocklebur ([3]; 500 g ai/ha): 70
Cocklebur plant response rating ([3]; 125 g ai/ha): 20
Cocklebur plant response rating ([3]; 500 g ai/ha): 70
Corn plant response rating (0 to 100 scale) ([4]; 125 g ai/ha): 70
Plant response rating, Corn ([4]; 500 g ai/ha): 100
Corn plant response rating ([4]; 125 g ai/ha): 10
Corn plant response rating ([4]; 500 g ai/ha): 20
Crabgrass, Large plant response rating (0 to 100 scale) ([5]; 125 g ai/ha): 100
Plant response rating, Crabgrass, Large ([5]; 500 g ai/ha): 100
Crabgrass, Large plant response rating ([5]; 125 g ai/ha): 10
Crabgrass, Large plant response rating ([5]; 500 g ai/ha): 10
Foxtail, Giant plant response rating (0 to 100 scale) ([6]; 125 g ai/ha): 100
Plant response rating, Foxtail, Giant ([6]; 500 g ai/ha): 100
Foxtail, Giant plant response rating ([6]; 125 g ai/ha): 10
Foxtail, Giant plant response rating ([6]; 500 g ai/ha): 20
Lambsquarters plant response rating (0 to 100 scale) ([7]; 125 g ai/ha): 100
Plant response rating, Lambsquarters ([7]; 500 g ai/ha): 100
Lambsquarters plant response rating ([7]; 125 g ai/ha): 90
Lambsquarters plant response rating ([7]; 500 g ai/ha): 90
Morningglory plant response rating (0 to 100 scale) ([8]; 125 g ai/ha): 40
Plant response rating, Morningglory ([8]; 500 g ai/ha): 100
Morningglory plant response rating ([8]; 125 g ai/ha): 30
Morningglory plant response rating ([8]; 500 g ai/ha): 70
Pigweed plant response rating (0 to 100 scale) ([9]; 125 g ai/ha): 100
Plant response rating, Pigweed ([9]; 500 g ai/ha): 100
Pigweed plant response rating ([9]; 125 g ai/ha): 20
Pigweed plant response rating ([9]; 500 g ai/ha): 60
Velvetleaf plant response rating (0 to 100 scale) ([10]; 125 g ai/ha): 70
Plant response rating, Velvetleaf ([10]; 500 g ai/ha): 100
Velvetleaf plant response rating ([10]; 125 g ai/ha): 50
Velvetleaf plant response rating ([10]; 500 g ai/ha): 70
Blackgrass plant response rating ([11]; 125 g ai/ha): 0
Blackgrass plant response rating ([11]; 500 g ai/ha): 20
Wheat plant response rating ([12]; 125 g ai/ha): 10
Wheat plant response rating ([12]; 500 g ai/ha): 10
Oat, Wild plant response rating ([13]; 125 g ai/ha): 0
Oat, Wild plant response rating ([13]; 500 g ai/ha): 0
Sedge, Umbrella plant response rating [14]: 80

CCN(CC)C(=O)c1cccc(NC(=O)c2sc(C(C)(C)C)nc2C)c1 [Compound 199]
Barnyardgrass plant response rating (0 to 100 scale) ([1]; 125 g ai/ha): 20
Plant response rating, Barnyardgrass ([1]; 500 g ai/ha): 90
Barnyardgrass plant response rating ([1]; 125 g ai/ha): 0
Barnyardgrass plant response rating ([1]; 500 g ai/ha): 10
Surinam Grass plant response rating (0 to 100 scale) ([2]; 125 g ai/ha): 10
Plant response rating, Surinam Grass ([2]; 500 g ai/ha): 70
Surinam Grass plant response rating ([2]; 125 g ai/ha): 10
Surinam Grass plant response rating ([2]; 500 g ai/ha): 20
Cocklebur plant response rating (0 to 100 scale) ([3]; 125 g ai/ha): 0
Plant response rating, Cocklebur ([3]; 500 g ai/ha): 0
Cocklebur plant response rating ([3]; 125 g ai/ha): 10
Cocklebur plant response rating ([3]; 500 g ai/ha): 60
Corn plant response rating (0 to 100 scale) ([4]; 125 g ai/ha): 0
Plant response rating, Corn ([4]; 500 g ai/ha): 10
Corn plant response rating ([4]; 125 g ai/ha): 10
Corn plant response rating ([4]; 500 g ai/ha): 20
Crabgrass, Large plant response rating (0 to 100 scale) ([5]; 125 g ai/ha): 90
Plant response rating, Crabgrass, Large ([5]; 500 g ai/ha): 100
Crabgrass, Large plant response rating ([5]; 125 g ai/ha): 10
Crabgrass, Large plant response rating ([5]; 500 g ai/ha): 10
Foxtail, Giant plant response rating (0 to 100 scale) ([6]; 125 g ai/ha): 10
Plant response rating, Foxtail, Giant ([6]; 500 g ai/ha): 100
Foxtail, Giant plant response rating ([6]; 125 g ai/ha): 10
Foxtail, Giant plant response rating ([6]; 500 g ai/ha): 10
Lambsquarters plant response rating (0 to 100 scale) ([7]; 125 g ai/ha): 80
Plant response rating, Lambsquarters ([7]; 500 g ai/ha): 90
Lambsquarters plant response rating ([7]; 125 g ai/ha): 60
Lambsquarters plant response rating ([7]; 500 g ai/ha): 70
Morningglory plant response rating (0 to 100 scale) ([8]; 125 g ai/ha): 0
Plant response rating, Morningglory ([8]; 500 g ai/ha): 60
Morningglory plant response rating ([8]; 125 g ai/ha): 40
Morningglory plant response rating ([8]; 500 g ai/ha): 60
Pigweed plant response rating (0 to 100 scale) ([9]; 125 g ai/ha): 90
Plant response rating, Pigweed ([9]; 500 g ai/ha): 100
Pigweed plant response rating ([9]; 125 g ai/ha): 10
Pigweed plant response rating ([9]; 500 g ai/ha): 40
Velvetleaf plant response rating (0 to 100 scale) ([10]; 125 g ai/ha): 0
Plant response rating, Velvetleaf ([10]; 500 g ai/ha): 60
Velvetleaf plant response rating ([10]; 125 g ai/ha): 20
Velvetleaf plant response rating ([10]; 500 g ai/ha): 30
Blackgrass plant response rating ([11]; 125 g ai/ha): 0
Blackgrass plant response rating ([11]; 500 g ai/ha): 10
Wheat plant response rating ([12]; 125 g ai/ha): 0
Wheat plant response rating ([12]; 500 g ai/ha): 10
Oat, Wild plant response rating ([13]; 125 g ai/ha): 10
Oat, Wild plant response rating ([13]; 500 g ai/ha): 10
Sedge, Umbrella plant response rating [14]: 10
